This passage reports TGI and GI50 results from PubChem BioAssay (NCI).

The structures appear in SMILES notation.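 These data come from cells grown in 96-well plates and exposed to compound for 48 hours at five concentrations. GI50: concentration for 50% inhibition of growth. TGI marks complete inhibition of growth.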

The test system of one experiment is MALME-3M melanoma. The experiment can be described thus: inhibition of tumour cell growth, NCI panel, 48 h.
The compound `C=C1C(=O)OC2/C=C(\C(=O)O)CC/C=C(\C)CC(OC(=O)/C=C(\C)CC)C12` (stereo unspecified) displayed a TGI of 32.7 µM.
Still for that read-out and setting: for `O=C(c1ccccc1)c1ccc2n[se]nc2c1` the value was greater than 100 µM; for `CC(=O)C(C(c1ccccc1)N1CCOCC1)N1CCOCC1` (stereo unspecified), greater than 100 µM.
In the case of `CCOP(=Nc1ccc(N(C)C)cc1)(OCC)OCC`, the TGI is greater than 100 µM.
For `CCCC(C)c1ccc(OCCCCCCN2CCNCC2)cc1` (stereo unspecified), the GI50 is 1.93 µM and the TGI came out at 3.75 µM.
`CCC1C[N+]23CCc4c([nH]c5ccccc45)C2CC1CC3` (stereo unspecified) registered a TGI of 97.4 µM.
Same read-out and setting: the figure for `Cc1ccc(S(=O)(=O)Nc2cccc3c(=O)[nH]cnc23)cc1` is greater than 100 µM; for `O=C1C=C(C2OC(CO)C(O)C2O)C(=O)N1` (stereo unspecified) it is greater than 100 µM.

The test system of another experiment is SK-OV-3 ovarian. The experiment can be described thus: inhibition of tumour cell growth, NCI panel, 48 h.
For the compound `C=C1C(=O)OC2/C=C(\C(=O)O)CC/C=C(\C)CC(OC(=O)/C=C(\C)CC)C12` (stereo unspecified), the TGI worked out at 37.9 µM.
On the same count and under the same terms, for `O=C(c1ccccc1)c1ccc2n[se]nc2c1` the value was greater than 100 µM; for `CC(=O)C(C(c1ccccc1)N1CCOCC1)N1CCOCC1` (stereo unspecified), greater than 100 µM; for `CCOP(=Nc1ccc(N(C)C)cc1)(OCC)OCC`, greater than 100 µM.
Turning to `CCCC(C)c1ccc(OCCCCCCN2CCNCC2)cc1` (stereo unspecified), the GI50 was 2.57 µM and the TGI was 7.12 µM.
Consider `CCC1C[N+]23CCc4c([nH]c5ccccc45)C2CC1CC3` (stereo unspecified), for which the TGI is greater than 100 µM.
Compound `CC1=C2C(O)C(C(C)C(=O)N(C)C)CCC2(C)C=CC1=O` (stereo unspecified) came in with a TGI greater than 100 µM.
On the same count and under the same terms, for `Cc1ccc(S(=O)(=O)Nc2cccc3c(=O)[nH]cnc23)cc1` the value was greater than 100 µM.
Compound `O=C1C=C(C2OC(CO)C(O)C2O)C(=O)N1` (stereo unspecified) gave a TGI greater than 100 µM.

A further experiment deals with SF-539 CNS. As to the kind of experiment: inhibition of tumour cell growth, NCI panel, 48 h.
With `C=C1C(=O)OC2/C=C(\C(=O)O)CC/C=C(\C)CC(OC(=O)/C=C(\C)CC)C12` (stereo unspecified), the TGI was 29.9 µM.
`O=C(c1ccccc1)c1ccc2n[se]nc2c1`: the TGI was 43 µM.
Still for that read-out and setting: the figure for `CC(=O)C(C(c1ccccc1)N1CCOCC1)N1CCOCC1` (stereo unspecified) is greater than 100 µM.
Turning to `CCCC(C)c1ccc(OCCCCCCN2CCNCC2)cc1` (stereo unspecified), the GI50 is 1.71 µM and the TGI worked out at 3.46 µM.
In the case of `CC1=C2C(O)C(C(C)C(=O)N(C)C)CCC2(C)C=CC1=O` (stereo unspecified), the TGI is greater than 100 µM.
On to `Cc1ccc(S(=O)(=O)Nc2cccc3c(=O)[nH]cnc23)cc1`, for which the TGI was greater than 100 µM.
Compound `O=C1C=C(C2OC(CO)C(O)C2O)C(=O)N1` (stereo unspecified) gave a TGI greater than 100 µM.

The subject of the next experiment is ACHN renal. As to the kind of experiment: inhibition of tumour cell growth, NCI panel, 48 h.
On to `C=C1C(=O)OC2/C=C(\C(=O)O)CC/C=C(\C)CC(OC(=O)/C=C(\C)CC)C12` (stereo unspecified), for which the TGI was determined as 46.2 µM.
The same measure, in the same setting: the figure for `O=C(c1ccccc1)c1ccc2n[se]nc2c1` is greater than 100 µM; for `CC(=O)C(C(c1ccccc1)N1CCOCC1)N1CCOCC1` (stereo unspecified) it is greater than 100 µM; for `CCOP(=Nc1ccc(N(C)C)cc1)(OCC)OCC` it is greater than 100 µM.
Take `CCCC(C)c1ccc(OCCCCCCN2CCNCC2)cc1` (stereo unspecified): the GI50 was 2.23 µM and the TGI came out at 5.32 µM.
`CCC1C[N+]23CCc4c([nH]c5ccccc45)C2CC1CC3` (stereo unspecified): the TGI is greater than 100 µM.
For `Cc1ccc(S(=O)(=O)Nc2cccc3c(=O)[nH]cnc23)cc1`, the TGI was greater than 100 µM.

The next experiment relates to SN12C renal. The experiment can be described thus: inhibition of tumour cell growth, NCI panel, 48 h.
As for `C=C1C(=O)OC2/C=C(\C(=O)O)CC/C=C(\C)CC(OC(=O)/C=C(\C)CC)C12` (stereo unspecified), the TGI was 31 µM.
`O=C(c1ccccc1)c1ccc2n[se]nc2c1` returned a TGI greater than 100 µM.
Still for that read-out and setting: the figure for `CC(=O)C(C(c1ccccc1)N1CCOCC1)N1CCOCC1` (stereo unspecified) is greater than 100 µM.
Regarding `CCCC(C)c1ccc(OCCCCCCN2CCNCC2)cc1` (stereo unspecified), the GI50 was 2.84 µM and the TGI is 9.66 µM.
With `CCC1C[N+]23CCc4c([nH]c5ccccc45)C2CC1CC3` (stereo unspecified), the TGI is greater than 100 µM.
The same measure, in the same setting: for `CC1=C2C(O)C(C(C)C(=O)N(C)C)CCC2(C)C=CC1=O` (stereo unspecified) the value was greater than 100 µM; for `Cc1ccc(S(=O)(=O)Nc2cccc3c(=O)[nH]cnc23)cc1`, greater than 100 µM; for `O=C1C=C(C2OC(CO)C(O)C2O)C(=O)N1` (stereo unspecified), greater than 100 µM.

The subject of a further experiment is MOLT-4 leukemia. The experiment can be described thus: inhibition of tumour cell growth, NCI panel, 48 h.
As for `C=C1C(=O)OC2/C=C(\C(=O)O)CC/C=C(\C)CC(OC(=O)/C=C(\C)CC)C12` (stereo unspecified), the TGI was greater than 100 µM.
`O=C(c1ccccc1)c1ccc2n[se]nc2c1` came in with a TGI greater than 100 µM.
On the same count and under the same terms, the figure for `CC(=O)C(C(c1ccccc1)N1CCOCC1)N1CCOCC1` (stereo unspecified) is greater than 100 µM; for `CCOP(=Nc1ccc(N(C)C)cc1)(OCC)OCC` it is greater than 100 µM.
With `CCCC(C)c1ccc(OCCCCCCN2CCNCC2)cc1` (stereo unspecified), the GI50 is 1.52 µM and the TGI was determined as 3.48 µM.
`CCC1C[N+]23CCc4c([nH]c5ccccc45)C2CC1CC3` (stereo unspecified) gave a TGI of 95.2 µM.
Take `CC1=C2C(O)C(C(C)C(=O)N(C)C)CCC2(C)C=CC1=O` (stereo unspecified): the TGI was greater than 100 µM.
Same read-out and setting: the figure for `Cc1ccc(S(=O)(=O)Nc2cccc3c(=O)[nH]cnc23)cc1` is greater than 100 µM; for `O=C1C=C(C2OC(CO)C(O)C2O)C(=O)N1` (stereo unspecified) it is greater than 100 µM.

Another experiment relates to OVCAR-8 ovarian. As to the kind of experiment: inhibition of tumour cell growth, NCI panel, 48 h.
`C=C1C(=O)OC2/C=C(\C(=O)O)CC/C=C(\C)CC(OC(=O)/C=C(\C)CC)C12` (stereo unspecified) returned a TGI of 33.9 µM.
On the same count and under the same terms, the figure for `O=C(c1ccccc1)c1ccc2n[se]nc2c1` is greater than 100 µM; for `CC(=O)C(C(c1ccccc1)N1CCOCC1)N1CCOCC1` (stereo unspecified) it is greater than 100 µM.
Turning to `CCOP(=Nc1ccc(N(C)C)cc1)(OCC)OCC`, the TGI is greater than 100 µM.
Same read-out and setting: the figure for `CCC1C[N+]23CCc4c([nH]c5ccccc45)C2CC1CC3` (stereo unspecified) is greater than 100 µM.
Turning to `CC1=C2C(O)C(C(C)C(=O)N(C)C)CCC2(C)C=CC1=O` (stereo unspecified), the TGI was greater than 100 µM.
`Cc1ccc(S(=O)(=O)Nc2cccc3c(=O)[nH]cnc23)cc1` gave a TGI greater than 100 µM.
Same read-out and setting: the figure for `O=C1C=C(C2OC(CO)C(O)C2O)C(=O)N1` (stereo unspecified) is greater than 100 µM.

The next experiment has as its system A498 renal. As to the kind of experiment: inhibition of tumour cell growth, NCI panel, 48 h.
`C=C1C(=O)OC2/C=C(\C(=O)O)CC/C=C(\C)CC(OC(=O)/C=C(\C)CC)C12` (stereo unspecified) yielded a TGI of 32 µM.
On the same count and under the same terms, the figure for `O=C(c1ccccc1)c1ccc2n[se]nc2c1` is greater than 100 µM; for `CC(=O)C(C(c1ccccc1)N1CCOCC1)N1CCOCC1` (stereo unspecified) it is greater than 100 µM.
Still for that read-out and setting: the figure for `CCOP(=Nc1ccc(N(C)C)cc1)(OCC)OCC` is greater than 100 µM.
`CCCC(C)c1ccc(OCCCCCCN2CCNCC2)cc1` (stereo unspecified): the GI50 was 2.43 µM and the TGI is 9.33 µM.
Compound `CC1=C2C(O)C(C(C)C(=O)N(C)C)CCC2(C)C=CC1=O` (stereo unspecified) gave a TGI greater than 100 µM.
The same measure, in the same setting: the figure for `Cc1ccc(S(=O)(=O)Nc2cccc3c(=O)[nH]cnc23)cc1` is greater than 100 µM; for `O=C1C=C(C2OC(CO)C(O)C2O)C(=O)N1` (stereo unspecified) it is greater than 100 µM.

The test system of a further experiment is KM20L2 colon. The experiment can be described thus: inhibition of tumour cell growth, NCI panel, 48 h.
Compound `C=C1C(=O)OC2/C=C(\C(=O)O)CC/C=C(\C)CC(OC(=O)/C=C(\C)CC)C12` (stereo unspecified) displayed a TGI of 39.5 µM.
The same measure, in the same setting: the figure for `O=C(c1ccccc1)c1ccc2n[se]nc2c1` is greater than 100 µM; for `CCC1C[N+]23CCc4c([nH]c5ccccc45)C2CC1CC3` (stereo unspecified) it is greater than 100 µM; for `CC1=C2C(O)C(C(C)C(=O)N(C)C)CCC2(C)C=CC1=O` (stereo unspecified) it is greater than 100 µM.
In turn, `Cc1ccc(S(=O)(=O)Nc2cccc3c(=O)[nH]cnc23)cc1` displayed a TGI greater than 100 µM.
Same read-out and setting: the figure for `O=C1C=C(C2OC(CO)C(O)C2O)C(=O)N1` (stereo unspecified) is greater than 100 µM.

Another experiment relates to NCI-H522 lung. The experiment can be described thus: inhibition of tumour cell growth, NCI panel, 48 h.
For `C=C1C(=O)OC2/C=C(\C(=O)O)CC/C=C(\C)CC(OC(=O)/C=C(\C)CC)C12` (stereo unspecified), the TGI was determined as 32.8 µM.
On the same count and under the same terms, for `O=C(c1ccccc1)c1ccc2n[se]nc2c1` the value was greater than 100 µM; for `CC(=O)C(C(c1ccccc1)N1CCOCC1)N1CCOCC1` (stereo unspecified), greater than 100 µM; for `CCOP(=Nc1ccc(N(C)C)cc1)(OCC)OCC`, greater than 100 µM.
Compound `CCC1C[N+]23CCc4c([nH]c5ccccc45)C2CC1CC3` (stereo unspecified) returned a TGI greater than 100 µM.
`CC1=C2C(O)C(C(C)C(=O)N(C)C)CCC2(C)C=CC1=O` (stereo unspecified) had a TGI greater than 100 µM.
On the same count and under the same terms, the figure for `Cc1ccc(S(=O)(=O)Nc2cccc3c(=O)[nH]cnc23)cc1` is greater than 100 µM; for `O=C1C=C(C2OC(CO)C(O)C2O)C(=O)N1` (stereo unspecified) it is 38.5 µM.

Another experiment has as its system UACC-257 melanoma. As to the kind of experiment: inhibition of tumour cell growth, NCI panel, 48 h.
The compound `C=C1C(=O)OC2/C=C(\C(=O)O)CC/C=C(\C)CC(OC(=O)/C=C(\C)CC)C12` (stereo unspecified) displayed a TGI of 39.9 µM.
For the compound `O=C(c1ccccc1)c1ccc2n[se]nc2c1`, the TGI is greater than 100 µM.
The compound `CC(=O)C(C(c1ccccc1)N1CCOCC1)N1CCOCC1` (stereo unspecified) had a TGI of 38.9 µM.
Still for that read-out and setting: the figure for `CCOP(=Nc1ccc(N(C)C)cc1)(OCC)OCC` is greater than 100 µM.
On to `CCCC(C)c1ccc(OCCCCCCN2CCNCC2)cc1` (stereo unspecified), for which the GI50 was 2.05 µM and the TGI was 4.72 µM.
`CCC1C[N+]23CCc4c([nH]c5ccccc45)C2CC1CC3` (stereo unspecified) registered a TGI greater than 100 µM.
Regarding `CC1=C2C(O)C(C(C)C(=O)N(C)C)CCC2(C)C=CC1=O` (stereo unspecified), the TGI was greater than 100 µM.
As to `Cc1ccc(S(=O)(=O)Nc2cccc3c(=O)[nH]cnc23)cc1`, the TGI is greater than 100 µM.
On the same count and under the same terms, the figure for `O=C1C=C(C2OC(CO)C(O)C2O)C(=O)N1` (stereo unspecified) is greater than 100 µM.

The test system of a further experiment is DMS 273 small cell lung. As to the kind of experiment: inhibition of tumour cell growth, NCI panel, 48 h.
For the compound `C=C1C(=O)OC2/C=C(\C(=O)O)CC/C=C(\C)CC(OC(=O)/C=C(\C)CC)C12` (stereo unspecified), the TGI is 34 µM.
The same measure, in the same setting: for `O=C(c1ccccc1)c1ccc2n[se]nc2c1` the value was greater than 100 µM; for `CCC1C[N+]23CCc4c([nH]c5ccccc45)C2CC1CC3` (stereo unspecified), greater than 100 µM.
Same read-out and setting: for `CC1=C2C(O)C(C(C)C(=O)N(C)C)CCC2(C)C=CC1=O` (stereo unspecified) the value was greater than 100 µM.
The same measure, in the same setting: the figure for `Cc1ccc(S(=O)(=O)Nc2cccc3c(=O)[nH]cnc23)cc1` is greater than 100 µM; for `O=C1C=C(C2OC(CO)C(O)C2O)C(=O)N1` (stereo unspecified) it is greater than 100 µM.
